Key:
[1] = Non-aqueous solvent screening (solubility of ACC HCl); assay type: physicochemical; details: about 21° C.
Method: ACC HCl salt was added at 1-gram increments to 1 liter of each of the solvents in Table 1 at about 21° C. while stirring until the salt would no longer solubilize.

[2] = Chemical stability of ACC HCl in select non-aqueous solvents, 54 C, 3 weeks; assay type: physicochemical; details: for ACC HCl 3 weeks / ACC HCl % loss: 54 C, 3 weeks; for ACC HCl Initial: time 0
Method: Formulations were prepared with 14% w/w initial concentration of ACC HCl and […] Tween® 20 in each of the following solvents: 1,3 propanediol; ethylene glycol; diethylene glycol; dimethyl lactamide; and N-methyl pyrrolidone. Each formulation was then stored at 54 C for 3 weeks, which is the equivalent of storage for 3 years at room temperature. ACC HCl salt concentration was measured at time 0 and at 3 weeks.

[3] = Chemical stability of ACC HCl in select non-aqueous solvents, 5 or 54 C, 2 weeks; assay type: physicochemical; details: for % loss / ACC HCl 5 C., 2 weeks / ACC HCl 54 C., 2 weeks: 2 weeks; for ACC HCl Initial: time 0
Method: Formulations were prepared with 14% w/w initial concentration of ACC HCl and 2.5% w/w Tween® 20 in each of the following solvents: polyethylene glycol and propylene glycol. Each formulation was then stored at 5 or 54 C for 2 weeks, which is the equivalent of storage for 2 years at room temperature. ACC HCl salt concentration was measured at time 0 and at 2 weeks.

[4] = Titration of ACC HCl salt solutions; assay type: physicochemical
Method: When ACC HCl salt was added to water to a concentration of 10% w/w ACC the pH was determined to be 1.0±0.3. The solution was then titrated with each of sodium hydroxide, N,N dimethyl ethanolamine, triethanolamine, choline hydroxide, ammonium hydroxide dimethyl amine, and triethyl tetramine to achieve more basic solutions.
Thus, ACC HCl salt solutions are inherently unstable at a pH range of 2.75 to 8.5.

cotton cotyledons = assay: Cotton cotyledon bioefficacy assay: effect of solution pH and ACC form on ethylene production; details: for Ethylene Production: 250 ppm, 48 hours after spray
[5] = Stable non-aqueous ACC HCl salt formulation (solubility, stability at 5° C.); assay type: physicochemical; details: 13.6% ACC HCl salt, 84.4% propylene glycol, 2% Tween 20
Method: A formulation was prepared containing 13.6% ACC HCl salt, 84.4% propylene glycol and 2% Tween® 20.
Further, non-aqueous formulations of the present invention remained stable when placed at 5° C. Thus, specific non-aqueous formulations can stabilize ACC HCl salt.

Gala apple = assay: Apple fruitlet thinning assay; assay type: in vivo
Method: Formulations 1-3 were diluted with water to 408 ppm ACC HCl salt (i.e. molar equivalent to 300 ppm ACC free acid) and applied to Gala apple fruit when mean fruit diameter was 20 mm along with ACC free acid at 300 ppm. The apple plants were allowed to reach fruit set and set fruits were counted and compared to an untreated control. Fruit set was calculated as the number of fruits which set on a sample of 100 flower clusters.

[6] = Surfactant screening for stable ACC HCl salt solutions (titration with potassium hydroxide); assay type: physicochemical; details: addition at about 0.5% w/w
Method: The solution was then titrated with potassium hydroxide to achieve a more basic solution. Due to the exothermic nature of the titration process, titration occurred in a water bath maintained at a temperature of 20° C.±5° C.

[7] = Diethylene glycol with Tween 20
[8] = Dimethyl lactamide with Tween 20
[9] = N-methyl pyrrolidone with Tween 20
[10] = Polyethylene glycol with 2.5% w/w Tween 20, 5 C
[11] = Polyethylene glycol with 2.5% w/w Tween 20, 54 C
[12] = Propylene glycol with 2.5% w/w Tween 20, 5 C
[13] = Propylene glycol with 2.5% w/w Tween 20, 54 C

SMILES: Cl.NC1(C(=O)O)CC1 [ACC HCl, 1-amino-1-cyclopropanecarboxylic acid hydrochloride salt]
- Measured Solubility of ACC HCl ([1]; 1,3-propane diol): 25 % w/w
- Measured Solubility of ACC HCl ([1]; Diethylene glycol monomethyl ether): 14 % w/w
- Measured Solubility of ACC HCl ([1]; Diethylene glycol): 25 % w/w
- Measured Solubility of ACC HCl ([1]; Dimethyl lactamide): 20 % w/w
- Measured Solubility of ACC HCl ([1]; Dipropylene glycol): 8 % w/w
- Measured Solubility of ACC HCl ([1]; Ethyl lactate): 14 % w/w
- Measured Solubility of ACC HCl ([1]; Ethylene glycol): 34 % w/w
- Measured Solubility of ACC HCl ([1]; Fatty alcohol ethoxylate): 14 % w/w
- Measured Solubility of ACC HCl ([1]; Glycerin): 14 % w/w
- Measured Solubility of ACC HCl ([1]; Monoacetin): 14 % w/w
- Measured Solubility of ACC HCl ([1]; N-methyl-2-pyrrolidinone): 20 % w/w
- Measured Solubility of ACC HCl ([1]; Polyethylene glycol 200): 21 % w/w
- Measured Solubility of ACC HCl ([1]; Polyethylene glycol 400): 14 % w/w
- Measured Solubility of ACC HCl ([1]; Polyethylene glycol 600): 14 % w/w
- Measured Solubility of ACC HCl ([1]; Polypropylene glycol): 14 % w/w
- Measured Solubility of ACC HCl ([1]; Propylene carbonate): <2 % w/w
- Measured Solubility of ACC HCl ([1]; Propylene glycol): 27 % w/w
- Measured Solubility of ACC HCl ([1]; The ester of 2-ethyl hexanol and natural lactic acid): 14 % w/w
- ACC HCl 3 weeks ([2]; 1,3 propanediol with Tween 20): 13.9 % w/w
- ACC HCl % loss ([2]; 1,3 propanediol with Tween 20): 1.7 % loss
- ACC HCl Initial ([2]; 1,3 propanediol with Tween 20): 14.14 % w/w
- ACC HCl 3 weeks [2, 7]: 13.8 % w/w
- ACC HCl % loss [2, 7]: 1.4 % loss
- ACC HCl Initial [2, 7]: ~14% w/w
- ACC HCl 3 weeks [2, 8]: 13.5 % w/w
- ACC HCl % loss [2, 8]: 2.9 % loss
- ACC HCl Initial [2, 8]: 13.9 % w/w
- ACC HCl 3 weeks ([2]; Ethylene glycol with Tween 20): 13.6 % w/w
- ACC HCl % loss ([2]; Ethylene glycol with Tween 20): 2.9 % loss
- ACC HCl Initial ([2]; Ethylene glycol with Tween 20): 14.0 % w/w
- ACC HCl 3 weeks [2, 9]: 13.9 % w/w
- ACC HCl % loss [2, 9]: 0.7 % loss
- ACC HCl Initial [2, 9]: 14.0 % w/w
- % loss [3, 10]: −0.3%
- ACC HCl 5 C., 2 weeks [3, 10]: 14.20 % w/w
- % loss [3, 11]: 2.5%
- ACC HCl 54 C., 2 weeks [3, 11]: 13.81 % w/w
- ACC HCl Initial ([3]; Polyethylene glycol with 2.5% w/w Tween 20): 14.16 % w/w
- % loss [3, 12]: 0%
- ACC HCl 5 C., 2 weeks [3, 12]: 14.10 % w/w
- % loss [3, 13]: 6.7%
- ACC HCl 54 C., 2 weeks [3, 13]: 13.15 % w/w
- ACC HCl Initial ([3]; Propylene glycol with 2.5% w/w Tween 20): 14.10 % w/w
- pH of solution ([4]; ACC HCl salt added to water to 10% w/w ACC): 1.0±0.3
- pH at which all precipitates dissolve into solution ([4]; further titration with base): above 9.0
- Ethylene Production (cotton cotyledons; solution pH 2.5): 26.9 nL/g FW/hr
- Ethylene Production (cotton cotyledons; solution pH 5.0): 16.5 nL/g FW/hr
- more ethylene generated at pH 2.5 than at pH 5.0 (cotton cotyledons; same solution, pH 2.5 vs pH 5.0): 65%
- solubility in non-aqueous solvents [5]: soluble

SMILES: NC1(C(=O)O)CC1 [ACC free acid, 1-amino-1-cyclopropanecarboxylic acid]
- Fruit set (Gala apple; 408 ppm ACC HCl salt (formulations) or 300 ppm ACC free acid, mean fruit diameter 20 mm): 70 fruit/100 flower clusters
- reduction of fruit set (Gala apple; compared to untreated control): 20%
- Ethylene Production (cotton cotyledons; solution pH 2.5): 31.1 nL/g FW/hr
- Ethylene Production (cotton cotyledons; solution pH 5.0): 13.4 nL/g FW/hr

SMILES: O=C(O)CN(CCN(CC(=O)O)CC(=O)O)CC(=O)O [EDTA, ethylenediaminetetraacetic acid]
- solution stability of ACC HCl salt solution [6]: further enhanced solution stability

Source: US11350630B2, “1-amino-1-cyclopropanecarboxylic acid hydrochloride formulations” (Valent BioSciences LLC, priority 2017, dated 2022)
